From patent publication US20260200921A1, “SUBSTITUTED AMINOPYRIDINE COMPOUNDS AS AKT INHIBITORS” (Atavistik Bio, Inc., priority 2023, published 2026)

How the values were obtained:
[1] = biological target: T1, AKT1 E17K (Homo sapiens, UniProt P31749, E17K); assay: AKT1 E17K kinase assay (TR-FRET, Lance); assay type: biochemical; conditions: full-length human recombinant AKT1 E17K activated by PDPK1; Ulight-CREBtide substrate; either 50 μM ATP or 2 mM ATP
T1 construct: Purified human recombinant kinase full-length AKT1 E17K was expressed in insect cells; made in house; host or cells: insect cells
Description: AKT1 E17K kinase assay: Inhibitory effects of compounds on AKT1 E17K were undertaken in a 10-pt dose response kinase activity assay measuring phospho-peptide product formation based on TR-FRET signal as described in the following paragraph.
(§1) Purified human recombinant kinase full-length AKT1 E17K was expressed in insect cells and activated in vitro by PDPK1. Ulight™-CREBtide (PerkinElmer, catalog number TRF0107) was used as the peptide substrate. The reaction buffer consisted of 50 mM HEPES pH 7.5, 10 mM MgCl2, 0.01% Triton X-100, 0.01% BSA, 2 mM DTT, 0.6 nM AKT1 E17K, 50 nM Ulight™-CREBtide and either 50 μM ATP or 2 mM ATP. The compound solution was prepared as 10 mM DMSO stock. For the assay, a 1:3 serial dilution 10-pt dose response of test compounds, in duplicate, for each concentration were dispensed into a 384-well plate (Corning, catalog number 4513). Final DMSO concentration in the assay was 1%. The enzyme mixture (5 μL, 1.2 nM) were added and the mixture was incubated for 15 min at RT prior to the start of the kinase reaction by the addition of 5 μL substrate mixture (100 nM Ulight™-CREBtide). The reaction was stopped after 60 min of incubation at RT by the addition of 10 μL of Detection Mix (PerkinElmer, #CR97-100) consisting of Europium-anti-phospho-CREB (Ser133) (Perkin Elmer, catalog numberTRF0200). Incubation with the detection mix for a further 60 min allowed binding of antibody to the phospho-Ulight™ CREBtide. The fluorescence emissions at 620 nm and 665 nm after excitation at 350 nm was measured using Envision reader. The ratio of the emissions at 665 nm and at 620 nm provided the measure for the amount of phosphorylated CREBtide product of AKT1 E17K kinase activity. To determine the IC50 values, the data was normalized (enzyme reaction without inhibitor=0% inhibition, all other assay components but no enzyme=100% inhibition) and IC50 values were calculated by a 4-parameter fit using an in-house developed protocol.

[2] = biological target: T2, wildtype AKT1 (Homo sapiens, UniProt P31749); assay: AKT1 kinase assay, wildtype (TR-FRET, Lance); assay type: biochemical; conditions: full-length human recombinant wildtype AKT1 activated by PDPK1; Ulight-CREBtide substrate; either 50 μM ATP or 2 mM ATP
T2 construct: Purified human recombinant kinase full-length wildtype AKT1 was expressed in insect cells; made in house; host or cells: insect cells
Description: AKT1 kinase assay: Inhibitory effects of compounds on wildtype AKT1 were undertaken in a 10-pt dose response kinase activity assay measuring phospho-peptide product formation based on TR-FRET signal as described in the following paragraph.
as §1, with “full-length wildtype” for “full-length”, “AKT1” for “AKT1 E17K”, “nM AKT1,” for “nM AKT1 E17K,”, “Mix (PerkinElmer.” for “Mix (PerkinElmer,”

T2 sequence (P31749 whole entry): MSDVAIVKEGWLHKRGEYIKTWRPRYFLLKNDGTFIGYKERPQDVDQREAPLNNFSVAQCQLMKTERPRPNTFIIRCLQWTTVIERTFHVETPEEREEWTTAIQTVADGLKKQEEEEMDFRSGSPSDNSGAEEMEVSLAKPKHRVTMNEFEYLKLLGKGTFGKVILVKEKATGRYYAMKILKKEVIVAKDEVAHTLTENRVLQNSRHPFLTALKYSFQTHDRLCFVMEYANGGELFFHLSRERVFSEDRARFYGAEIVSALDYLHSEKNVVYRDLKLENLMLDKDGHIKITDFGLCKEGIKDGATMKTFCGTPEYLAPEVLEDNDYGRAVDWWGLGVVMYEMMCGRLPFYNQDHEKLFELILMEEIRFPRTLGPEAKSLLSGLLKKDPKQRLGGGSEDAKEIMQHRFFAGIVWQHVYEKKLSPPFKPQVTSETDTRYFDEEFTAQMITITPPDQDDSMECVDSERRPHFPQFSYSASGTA
T1 sequence (P31749 whole entry E17K): as the sequence (P31749 whole entry) above, with E17K counted along it

Row | SMILES | IC50 [1] [nM] | IC50 [2] [nM]
1 | Nc1ncccc1-c1nc2ccc(-c3ccccc3)nc2n1-c1ccc(CNC(=O)c2ccc(-c3nn[nH]n3)cc2)cc1 [Compound I-20, N-(4-(2-(2-aminopyridin-3-yl)-5-phenyl-3H-imidazo[4,5-b]pyridin-3-yl)benzyl)-4-(2H-tetrazol-5-yl)benzamide] | < 50 | < 500
2 | Nc1ncccc1-c1nc2ccc(-c3ccccc3)nc2n1-c1ccc(CNC(=O)c2cccc(-c3nn[nH]n3)c2)cc1 [Compound I-21, N-(4-(2-(2-aminopyridin-3-yl)-5-phenyl-3H-imidazo[4,5-b]pyridin-3-yl)benzyl)-3-(2H-tetrazol-5-yl)benzamide] | 50 to 200 | < 500
3 | Cc1cc(O)n(-c2ccc(C(=O)NCc3ccc(-n4c(-c5cccnc5N)nc5ccc(-c6ccccc6)nc54)nc3)cc2)n1 [Compound I-22, N-[[6-[2-(2-amino-3-pyridyl)-5-phenyl-imidazo[4,5-b]pyridin-3-yl]-3-pyridyl]methyl]-4-(5-hydroxy-3-methyl-pyrazol-1-yl)benzamide] | ≥ 500 | > 500
4 | Cc1cc(O)n(-c2ccc(C(=O)NCc3ccc(-n4c(-c5cccnc5N)nc5cc(-c6ccccc6)cnc54)cc3)cc2)n1 [Compound I-23, N-(4-(2-(2-aminopyridin-3-yl)-6-phenyl-3H-imidazo[4,5-b]pyridin-3-yl)benzyl)-4-(5-hydroxy-3-methyl-1H-pyrazol-1-yl)benzamide] | ≥ 500 | > 500
5 | Cc1cc(O)n(-c2ccc(C(=O)NCc3ccc(-n4c(-c5cccnc5N)nc5cc(-c6cccnc6)cnc54)cc3)cc2)n1 [Compound I-24, N-[[4-[2-(2-amino-3-pyridyl)-6-(3-pyridyl)imidazo[4,5-b]pyridin-3-yl]phenyl]methyl]-4-(5-hydroxy-3-methyl-pyrazol-1-yl)benzamide] | ≥ 500 | < 500
6 | Cc1cc(O)n(-c2ccc(C(=O)N3CC(c4ccc(-n5c(-c6cccnc6N)nc6ccc(-c7ccccc7)nc65)cc4)C3)cc2)n1 [Compound I-25, (3-(4-(2-(2-aminopyridin-3-yl)-5-phenyl-3H-imidazo[4,5-b]pyridin-3-yl)phenyl)azetidin-1-yl)(4-(5-hydroxy-3-methyl-1H-pyrazol-1-yl)phenyl) methanone] | < 50 | < 500
7 | Nc1ncccc1-c1nc2ccc(-c3ccccc3)nc2n1-c1ccc(C2CN(C(=O)c3ccc(-c4nn[nH]n4)cc3)C2)cc1 [Compound I-26, (4-(2H-tetrazol-5-yl)phenyl)(3-(4-(2-(2-aminopyridin-3-yl)-5-phenyl-3H-imidazo[4,5-b]pyridin-3-yl)phenyl)azetidin-1-yl)methanone] | < 50 | < 500
8 | Nc1ncccc1-c1nc2ccc(-c3ccccc3)nc2n1-c1ccc(C2CN(C(=O)c3cccc(-c4nn[nH]n4)c3)C2)cc1 [Compound I-27, (3-(2H-tetrazol-5-yl)phenyl)(3-(4-(2-(2-aminopyridin-3-yl)-5-phenyl-3H-imidazo[4,5-b]pyridin-3-yl)phenyl)azetidin-1-yl)methanone] | 50 to 200 | < 500
9 | Cc1cc(O)n(-c2ccc(C(=O)NCc3ccc(-n4c(-c5cccnc5N)nc5ccc(-c6ccccc6)cc54)cc3)cc2)n1 [Compound I-28, N-[[4-[2-(2-amino-3-pyridyl)-6-phenyl-benzimidazol-1-yl]phenyl]methyl]-4-(5-hydroxy-3-methyl-pyrazol-1-yl)benzamide] | ≥ 500 | > 500
10 | Cn1ncc(-c2ccc(C(=O)NCc3ccc(-n4c(-c5cccnc5N)nc5ccc(-c6ccccc6)nc54)cc3)cc2)c1O [Compound I-29, N-[[4-[2-(2-amino-3-pyridyl)-5-phenyl-imidazo[4,5-b]pyridin-3-yl]phenyl]methyl]-4-(5-hydroxy-1-methyl-pyrazol-4-yl)benzamide] | ≥ 500 | < 500
11 | Cc1nc(NC(=O)[C@H]2CC[C@H](c3nsc(=O)[nH]3)CC2)ccc1-n1c(-c2cccnc2N)nc2ccc(-c3ccccc3)nc21 [Compound I-38, (1r,4r)-N-(5-(2-(2-aminopyridin-3-yl)-5-phenyl-3H-imidazo[4,5-b]pyridin-3-yl)-6-methylpyridin-2-yl)-4-(5-oxo-4,5-dihydro-1,2,4-thiadiazol-3-yl)cyclohexane-1-carboxamide] | ≥ 500 | < 500
12 | Cc1nc(NC(=O)[C@H]2CC[C@H](c3nn[nH]n3)CC2)ccc1-n1c(-c2cccnc2N)nc2ccc(-c3ccccc3)nc21 [Compound I-39, (1r,4r)-N-(5-(2-(2-aminopyridin-3-yl)-5-phenyl-3H-imidazo[4,5-b]pyridin-3-yl)-6-methylpyridin-2-yl)-4-(2H-tetrazol-5-yl)cyclohexane-1-carboxamide] | 200 to 500 | < 500
13 | Cc1nc(NC(=O)c2cccc(-c3nsc(=O)[nH]3)c2)ccc1-n1c(-c2cccnc2N)nc2ccc(-c3ccccc3)nc21 [Compound I-40, N-(5-(2-(2-aminopyridin-3-yl)-5-phenyl-3H-imidazo[4,5-b]pyridin-3-yl)-6-methylpyridin-2-yl)-3-(5-oxo-4,5-dihydro-1,2,4-thiadiazol-3-yl)benzamide] | < 50 | < 500
14 | Nc1ncccc1-c1nc2ccc(-c3ccccc3)nc2n1-c1ccc(NC(=O)c2ccc(-c3nsc(=O)[nH]3)cc2F)nc1 [Compound I-41, N-(5-(2-(2-aminopyridin-3-yl)-5-phenyl-3H-imidazo[4,5-b]pyridin-3-yl)pyridin-2-yl)-2-fluoro-4-(5-oxo-4,5-dihydro-1,2,4-thiadiazol-3-yl)benzamide] | 50 to 200 | < 500
15 | Cc1nc(NC(=O)c2ccc(-c3nsc(=O)[nH]3)cc2)ccc1-n1c(-c2cccnc2N)nc2ccc(-c3ccccc3)nc21 [Compound I-42, N-(5-(2-(2-aminopyridin-3-yl)-5-phenyl-3H-imidazo[4,5-b]pyridin-3-yl)-6-methylpyridin-2-yl)-4-(5-oxo-4,5-dihydro-1,2,4-thiadiazol-3-yl)benzamide] | 50 to 200 | < 500
16 | Nc1ncccc1-c1nc2ccc(-c3ccccc3)nc2n1-c1ccc(C2CN(C[C@H]3CC[C@H](c4nsc(=O)[nH]4)CC3)C2)cc1 [Compound I-43, 3-((1r,4r)-4-((3-(4-(2-(2-aminopyridin-3-yl)-5-phenyl-3H-imidazo[4,5-b]pyridin-3-yl)phenyl)azetidin-1-yl)methyl)cyclohexyl)-1,2,4-thiadiazol-5(4H)-one] | ≥ 500 | < 500
17 | Nc1ncccc1-c1nc2ccc(-c3ccccc3)nc2n1-c1ccc(C2CN(C[C@H]3CC[C@@H](c4nsc(=O)[nH]4)CC3)C2)cc1 [Compound I-44, 3-((1s,4s)-4-((3-(4-(2-(2-aminopyridin-3-yl)-5-phenyl-3H-imidazo[4,5-b]pyridin-3-yl)phenyl)azetidin-1-yl)methyl)cyclohexyl)-1,2,4-thiadiazol-5(4H)-one] | ≥ 500 | < 500
